# Source: PMC10755728, “Inhibitors of the Elastase LasB for the Treatment of Pseudomonas aeruginosa Lung Infections” (ACS Central Science, 2023)
# Where two headings read alike, the source gives them in different places.
# Assays:
# [1] = Metabolic stability in mouse liver S9 fraction; type: in vitro ADME
# [2] = Plasma stability, mouse; type: in vitro ADME; settings: for half-life: C57BL6, mouse, pooled plasma, species profiling, read-out: Plasma T1/2 Mouse (C57BL6); for half-life at 1 μM: mouse plasma, read-out: Plasma T1/2 Mouse
# [3] = target: T1, LasB (Pseudomonas aeruginosa, UniProt Q02RJ6); assay: biochemical; type: biochemical
# T1 construct: made in house
# T1 sequence (Q02RJ6 198-498): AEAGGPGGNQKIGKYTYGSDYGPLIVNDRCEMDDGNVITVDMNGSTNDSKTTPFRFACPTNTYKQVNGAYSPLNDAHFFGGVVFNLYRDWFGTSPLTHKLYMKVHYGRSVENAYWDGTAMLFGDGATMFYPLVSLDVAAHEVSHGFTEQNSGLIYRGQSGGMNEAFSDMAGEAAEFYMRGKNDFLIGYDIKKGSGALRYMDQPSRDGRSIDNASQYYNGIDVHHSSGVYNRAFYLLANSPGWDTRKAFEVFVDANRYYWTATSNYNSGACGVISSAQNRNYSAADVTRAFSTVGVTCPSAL
# [4] = Microsomal stability, rat liver microsomes; type: in vitro ADME; settings: Wistar, pooled liver microsomes
# [5] = Metabolic stability in human liver S9 fraction; type: in vitro ADME
# [6] = Plasma stability, minipig; type: in vitro ADME; settings: Göttingen, pooled plasma, species profiling, read-out: Plasma T1/2 Minipig (Göttingen)
# [7] = Plasma stability, rat; type: in vitro ADME; settings: Wistar, pooled plasma, species profiling, read-out: Plasma T1/2 Rat (Wistar)
# [8] = Microsomal stability, minipig liver microsomes; type: in vitro ADME; settings: Göttingen, pooled liver microsomes
# [9] = Lipophilicity determination (LogD7.4, HPLC-MS); type: physicochemical; settings: for chromatographic logD: pH 7.4, pH 7.4, chromatographic
# Experimental: Lipophilicity determination. LogD7.4 was analyzed using an HPLC−MS based method.50 The retention time of 12 compounds with known LogD7.4 was determined and plotted toward their LogD7.4. Linear regression was used to determine the LogD7.4 of unknown compounds. Analysis was performed using a Dionex Ultimate 3000 HPLC system coupled to a TSQ Quantum Access MAX (Thermo Fisher, Dreieich, Germany) with the following conditions: EC150/2 NUCLEODUR C18 Pyramid column, 5 μM (Macherey Nagel, Düren, Germany); eluent A: 50 mM NH4OAc pH 7.4, eluent B: acetonitrile, and flow: 0.6 mL/min.
# [10] = Microsomal stability, mouse liver microsomes; type: in vitro ADME; settings: C57BL6, mouse, pooled liver microsomes
# [11] = target: T2, HDAC-3 (Homo sapiens, UniProt O15379); assay: HDAC-3 inhibitor screening kit; type: biochemical
# T2 construct: purchased Sigma-Aldrich (Saint Louis, MO)
# T2 sequence (O15379 whole entry): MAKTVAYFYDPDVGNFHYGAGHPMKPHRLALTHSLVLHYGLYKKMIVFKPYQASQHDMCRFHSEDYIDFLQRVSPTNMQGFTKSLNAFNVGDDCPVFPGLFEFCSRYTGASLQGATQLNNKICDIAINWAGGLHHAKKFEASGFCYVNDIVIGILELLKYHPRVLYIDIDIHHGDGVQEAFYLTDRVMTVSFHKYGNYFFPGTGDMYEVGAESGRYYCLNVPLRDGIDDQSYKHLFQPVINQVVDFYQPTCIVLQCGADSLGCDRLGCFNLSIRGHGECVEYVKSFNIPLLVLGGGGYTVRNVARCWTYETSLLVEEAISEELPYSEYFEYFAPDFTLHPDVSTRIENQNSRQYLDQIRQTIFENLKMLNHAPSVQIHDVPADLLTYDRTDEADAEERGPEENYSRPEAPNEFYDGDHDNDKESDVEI
# T2 sequence (Q9Y618 395-489 partner limits assumed): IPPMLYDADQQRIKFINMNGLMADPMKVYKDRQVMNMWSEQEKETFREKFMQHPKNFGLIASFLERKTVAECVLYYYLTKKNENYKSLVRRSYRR
# [12] = mouse, in vivo
# [13] = target: T3, HDAC-8 (Homo sapiens, UniProt Q9BY41); assay: HDAC-8 inhibitor screening kit; type: biochemical
# T3 construct: purchased Sigma-Aldrich (Saint Louis, MO)
# T3 sequence (Q9BY41 1-377): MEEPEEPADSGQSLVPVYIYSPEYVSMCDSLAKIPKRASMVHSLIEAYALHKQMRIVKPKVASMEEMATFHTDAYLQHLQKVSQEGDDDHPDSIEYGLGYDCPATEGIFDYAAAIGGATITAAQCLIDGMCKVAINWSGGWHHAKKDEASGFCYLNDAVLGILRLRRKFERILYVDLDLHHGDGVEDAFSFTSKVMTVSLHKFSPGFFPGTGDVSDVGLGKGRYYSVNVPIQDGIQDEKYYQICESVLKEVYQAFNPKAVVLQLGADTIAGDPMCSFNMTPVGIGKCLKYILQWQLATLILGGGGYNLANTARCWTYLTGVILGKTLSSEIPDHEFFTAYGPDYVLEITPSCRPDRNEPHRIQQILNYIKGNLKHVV
# [14] = target: T4, MMP-1 (Homo sapiens, UniProt P03956); assay: MMP-1 inhibition assay; type: biochemical; settings: 100 μM; read-out: % inhibition MMP-1
# T4 construct: purchased AnaSpec (Fremont, CA, USA)
# T4 sequence (P03956 100-469): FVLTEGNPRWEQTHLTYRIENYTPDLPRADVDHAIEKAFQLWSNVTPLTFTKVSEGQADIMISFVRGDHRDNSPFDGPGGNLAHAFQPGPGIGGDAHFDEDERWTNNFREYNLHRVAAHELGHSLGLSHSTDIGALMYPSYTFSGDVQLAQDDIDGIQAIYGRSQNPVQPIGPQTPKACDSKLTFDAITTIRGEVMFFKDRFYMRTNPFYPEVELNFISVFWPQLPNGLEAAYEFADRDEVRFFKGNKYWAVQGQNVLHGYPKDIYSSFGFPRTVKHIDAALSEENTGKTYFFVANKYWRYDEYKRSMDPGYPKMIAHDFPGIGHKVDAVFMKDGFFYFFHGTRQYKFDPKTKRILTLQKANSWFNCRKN
# [15] = test system: HepG2; settings: human, 48 h, 100 µM
# Experimental: (§1) Culturing of HepG2, A549 and HEK293 cells. The human hepatocellular carcinoma cell line HepG2, the lung adenocarcinoma cell line A549 and Human Embryonic (HEK) 293 cells were cultured in Dulbecco's Modified Eagle Medium (DMEM), containing 10% Fetal Bovine Serum
# (§2) (FBS) and 1% penicillin-streptomycin mixture. Cells were maintained according to standard cell
# (§3) Cytotoxicity assay. An MTT-based assay was employed to evaluate the viability of HepG2,
# (§4) HEK293 and A549 cells after challenge with selected LasB inhibitors and performed as described
# [16] = target: T5, MMP-3 (Homo sapiens, UniProt P08254); assay: MMP-3 inhibition assay; type: biochemical; settings: 100 μM; read-out: % inhibition MMP-3
# T5 construct: purchased AnaSpec (Fremont, CA, USA)
# T5 sequence (P08254 100-477): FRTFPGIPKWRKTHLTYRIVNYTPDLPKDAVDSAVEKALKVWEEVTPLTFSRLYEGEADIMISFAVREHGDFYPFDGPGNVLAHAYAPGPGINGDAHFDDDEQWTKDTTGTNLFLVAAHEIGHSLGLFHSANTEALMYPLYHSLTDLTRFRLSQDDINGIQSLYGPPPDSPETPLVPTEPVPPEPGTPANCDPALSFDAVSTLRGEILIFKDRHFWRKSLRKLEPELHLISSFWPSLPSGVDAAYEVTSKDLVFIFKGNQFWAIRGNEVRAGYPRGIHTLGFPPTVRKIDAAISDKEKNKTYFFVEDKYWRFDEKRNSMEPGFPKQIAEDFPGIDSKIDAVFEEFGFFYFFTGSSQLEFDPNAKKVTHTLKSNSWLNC
# [17] = target: T6, MMP-2 (Homo sapiens, UniProt P08253); assay: MMP-2 inhibition assay; type: biochemical; settings: 100 μM; read-out: % inhibition MMP-2
# T6 construct: purchased AnaSpec (Fremont, CA, USA)
# T6 sequence (P08253 110-660): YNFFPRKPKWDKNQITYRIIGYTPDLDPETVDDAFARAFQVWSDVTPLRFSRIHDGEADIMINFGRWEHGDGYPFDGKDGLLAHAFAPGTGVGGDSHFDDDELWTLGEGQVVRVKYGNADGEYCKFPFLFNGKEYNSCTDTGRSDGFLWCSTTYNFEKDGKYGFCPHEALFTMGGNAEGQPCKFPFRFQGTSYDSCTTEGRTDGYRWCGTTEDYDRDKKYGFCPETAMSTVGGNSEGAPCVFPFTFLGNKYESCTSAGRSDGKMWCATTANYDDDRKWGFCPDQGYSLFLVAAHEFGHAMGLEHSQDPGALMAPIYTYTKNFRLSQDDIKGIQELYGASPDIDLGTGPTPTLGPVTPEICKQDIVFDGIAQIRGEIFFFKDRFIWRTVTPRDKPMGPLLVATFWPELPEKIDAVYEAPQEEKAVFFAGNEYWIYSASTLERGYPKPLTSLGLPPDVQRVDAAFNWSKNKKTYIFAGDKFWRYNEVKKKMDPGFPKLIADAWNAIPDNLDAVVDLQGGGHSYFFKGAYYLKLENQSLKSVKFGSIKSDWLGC
# [18] = target: T7, COX-1 (Ovis aries, UniProt P05979); assay: Fluorometric COX-1 inhibitor assay; type: biochemical, human
# T7 construct: purchased Abcam (Cambridge, UK)
# T7 sequence (P05979 25-600): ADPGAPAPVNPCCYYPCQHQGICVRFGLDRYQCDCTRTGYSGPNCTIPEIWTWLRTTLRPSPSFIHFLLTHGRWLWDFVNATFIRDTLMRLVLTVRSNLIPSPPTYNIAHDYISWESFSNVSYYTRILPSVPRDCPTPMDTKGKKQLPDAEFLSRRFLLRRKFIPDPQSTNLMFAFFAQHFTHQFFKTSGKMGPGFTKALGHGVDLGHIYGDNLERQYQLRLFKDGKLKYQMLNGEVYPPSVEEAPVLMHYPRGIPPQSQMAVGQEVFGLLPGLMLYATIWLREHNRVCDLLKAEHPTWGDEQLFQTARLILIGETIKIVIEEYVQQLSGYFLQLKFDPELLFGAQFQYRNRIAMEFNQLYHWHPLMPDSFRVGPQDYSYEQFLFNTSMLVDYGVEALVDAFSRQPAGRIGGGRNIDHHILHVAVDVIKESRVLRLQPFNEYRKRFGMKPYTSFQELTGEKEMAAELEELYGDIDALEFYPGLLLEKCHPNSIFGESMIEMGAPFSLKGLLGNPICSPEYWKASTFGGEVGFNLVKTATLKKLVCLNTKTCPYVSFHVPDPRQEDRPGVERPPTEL
# [19] = Calu-3 permeability; type: in vitro ADME; settings: human
# [20] = test system: HEK293; settings: human, 48 h, 100 µM
# Experimental: as §1, §2, §3, §4
# [21] = test system: A549 cells treated with P. aeruginosa PAO1 and PA14 supernatants; assay: A549 cells challenged with P. aeruginosa culture supernatants; settings: PAO1 or PA14 csn
# Experimental: Cells were maintained according to standard cell
# PA14 csn production. The csn of wt PA14 and ΔlasB PA14 was produced as we previously
# Validation of the effect of LasB inhibitors on A549 cells in vitro. The experiment was performed
# as described previously.32 The Picrosirius red assay was performed by washing the csn-challenged
# cells (± inhibitor) 3x with PBS followed by an incubation with Bouin solution (Sigma) at RT for
# 20 min. The cells were incubated with 0.1% Picrosirius red dye (ab150681) at RT for 2 h. Then,
# they were washed once with 0.01 N HCl, and the matrix was dissolved in 0.01 N NaOH. The
# absorption was measured at 570 nm using a PHERAstar plate reader (BMG Labtech). By dividing
# the absorbance of each sample by the absorbance of the healthy sample, the relative collagen
# quantity was determined. For each condition, the experiment was performed three times. To
# determine the rescue of A549 cells treated with 5% wt PA14 csn using our compounds, the LasB
# inhibitors were used at 2, 0.5, 0.1 and 0.05 µM. The compounds were incubated in F12K medium,
# Cell detachment was then evaluated, and a Trypan Blue cell
# cells/well were seeded into a flat bottom 96-well plate (Corning™ Costar™) and incubated at 37
# were tested against 10% (v/v) P. aeruginosa PAO1 csn diluted in DMEM starting from 10 µM
# and 20 µM, respectively. Compound was initially dissolved in DMSO, and a low final assay
# concentration of 0.5% (v/v) was applied to minimize the proteolytic effect of DMSO on the
# bacterial culture supernatant. In addition, cells were challenged with 10% (v/v) of ΔlasB PAO1 to
# [22] = test system: zebrafish embryos; assay: Zebrafish embryo toxicity
# Experimental: Zebrafish embryo toxicity. The experiment was performed according to a procedure described
# in the literature55 with minor modifications using zebrafish embryos of the AB wild-type line at 1
# day post fertilization (dpf).
# [23] = target: ColH-PD (Hathewaya histolytica, UniProt Q46085); assay: biochemical; type: biochemical, Clostridium histolyticum; settings: read-out: % inhibition ColH-PD @1 µM
# Chain of ColH-PD (Q46085 331-721 limits assumed): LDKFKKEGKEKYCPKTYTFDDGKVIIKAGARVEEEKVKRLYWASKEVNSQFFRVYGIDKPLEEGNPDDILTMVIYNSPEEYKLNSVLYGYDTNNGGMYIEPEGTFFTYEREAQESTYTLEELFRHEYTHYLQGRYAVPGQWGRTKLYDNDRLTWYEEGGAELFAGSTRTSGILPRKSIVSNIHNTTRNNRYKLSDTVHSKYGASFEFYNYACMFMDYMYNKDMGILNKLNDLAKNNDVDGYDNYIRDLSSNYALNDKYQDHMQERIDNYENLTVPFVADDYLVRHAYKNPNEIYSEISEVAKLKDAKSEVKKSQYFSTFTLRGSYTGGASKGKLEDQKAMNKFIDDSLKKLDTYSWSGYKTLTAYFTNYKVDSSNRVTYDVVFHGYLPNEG
# [24] = test system: 3D lung organoids; assay: Lung organoid assay; type: cell-based, human
# [25] = target: T8, TACE (Homo sapiens, UniProt P78536); assay: TACE inhibitor screening kit; type: biochemical; settings: 100 μM; read-out: % inhibition TACE
# T8 construct: purchased Sigma-Aldrich (Saint Louis, MO)
# T8 sequence (P78536 215-824): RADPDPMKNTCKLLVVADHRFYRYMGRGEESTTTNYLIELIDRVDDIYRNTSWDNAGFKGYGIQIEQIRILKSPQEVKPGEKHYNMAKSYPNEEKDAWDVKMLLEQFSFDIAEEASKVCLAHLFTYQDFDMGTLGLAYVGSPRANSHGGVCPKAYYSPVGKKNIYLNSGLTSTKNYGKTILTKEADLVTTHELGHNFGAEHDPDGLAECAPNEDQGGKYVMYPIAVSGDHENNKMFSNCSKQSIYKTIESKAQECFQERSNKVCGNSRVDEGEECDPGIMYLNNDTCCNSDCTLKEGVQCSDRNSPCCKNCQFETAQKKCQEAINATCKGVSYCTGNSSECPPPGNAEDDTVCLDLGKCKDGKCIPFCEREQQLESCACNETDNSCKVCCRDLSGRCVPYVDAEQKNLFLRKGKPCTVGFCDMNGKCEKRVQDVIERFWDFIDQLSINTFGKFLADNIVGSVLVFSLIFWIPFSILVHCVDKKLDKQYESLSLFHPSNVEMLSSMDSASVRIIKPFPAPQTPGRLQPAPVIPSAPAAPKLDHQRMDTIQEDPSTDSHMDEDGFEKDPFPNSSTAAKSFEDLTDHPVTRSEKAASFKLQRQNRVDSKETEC
# [26] = test system: P. aeruginosa PA14; assay: Bacterial growth inhibition assay; type: cell-based, Pseudomonas aeruginosa; settings: Pseudomonas aeruginosa, PA14; 100 µM compound concentration; read-out: Percent (%) growth inhibition of P. aeruginosa PA14
# Experimental: Bacterial growth inhibition assay. Assays regarding the determination of the MIC were
# performed as described recently for P. aeruginosa PA14.58
# [27] = test system: Eurofins SafetyScreen44 panel; assay: Off-target SafetyScreen44 panel; settings: 10 μM
# From the text: Then, we assessed potential additional safety liabilities of 4a and 4b using the Eurofins SafetyScreen44 panel to identify the most important off-target interactions at an early stage. […] Furthermore, to gain a deeper insight into the potential clinical applicability, we investigated the toxicity of compounds in vivo on zebrafish embryos.
# Off-Target Safety Screen44TM Panel.
# Eurofins Cerep, according to their guidelines.
# their Standard Operating Procedures.
# Zebrafish embryo toxicity.
# [28] = test system: P. aeruginosa DSM-1117; assay: Neutropenic lung infection model (PD study); settings: neutropenic mice, 24 h; 4b 10 mg/kg TID nebulized, levofloxacin 25 mg/kg IP
# Experimental: For the therapeutic neutropenic
# pneumonia model, female CD-1 mice, 8-weeks-old, (Charles River, Germany) were rendered
# neutropenic by administration of 150 mg/kg and 100 mg/kg cyclophosphamide i.p. on day –4 and
# –1, respectively. The inoculum was prepared as follows: on day -1 the P. aeruginosa strain DSM-
# single colony was inoculated into LB medium (diluted 1:6 in water) containing 0.01% mucin and
# incubated at 120 rpm and 37 °C.
# washed twice in 0.9 % NaCl-solution. Then they were adjusted to an OD of 10. For infection with
# P. aeruginosa an inoculum of 1.2x10^9 cfu/mL was used. At d0 mice were infected by nebulization
# using an Aeroneb® nebulizer (Kent Scientific) of 20 µL 1.2x10^9 CFU/ml P. aeruginosa DSM-
# To control bacterial burden after nebulization, two animals were used as inoculum control
# group. The following groups were used: (1) vehicle control group, (2) levofloxacin group wit h
# mg/kg inhaled TID (t= 2, 6 and 10 h) combined with levofloxacin at 25 mg/kg IP QD (t= 2 h p.i.).
# After isolation of blood, lung was
# removed, weighed, and homogenized in 3 mL 0.9% NaCl. For de termination of CFUs, suspensions
# of homogenized organs were serially diluted, plated on agar plates and incubated overnight at 37
# °C. CFUs were determined by manual counting.
# [29] = test system: LasB; type: in vivo, mouse; settings: compared to the vehicle group; 4b 10 mg/kg TID, levofloxacin 25 mg/kg
# [30] = FRET-based assay, read-out: LasB IC50
smiles,measurement,setting,value
CC(C)CC(C(=O)Nc1ccc(F)cc1)P(=O)(O)O (stereo not shown) [Compound 4h],microsomal CLint at 1 μM,[1],< 5.8 µL/min/mg
same,half-life,[2],> 240 min
same,half-life at 1 μM,[2],> 150 min
same,IC50,[3]; [30],92.7 ± 21.6 nM
same,fold less active than chlorine and bromine compounds,[3]; vs 4i and 4j,2 fold
same,microsomal CLint,[4],< 11.6 µL/min/mg
same,microsomal CLint at 1 μM,[5],< 5.8 µL/min/mg
same,half-life,[6],> 240 min
same,half-life,[7],> 240 min
same,microsomal CLint,[8],< 11.6 µL/min/mg
same,chromatographic logD,[9],-0.79
same,microsomal CLint,[10],< 11.6 µL/min/mg
Cc1ccc(NC(=O)C(CC(C)C)C(=O)NO)cc1 (stereo not shown) [Compound 3g],inhibition at 100 µM,[11],< 10%
same,detection in ELF and lung tissue,[12],not detected
same,microsomal CLint at 1 μM,[1],64 ± 10 µL/min/mg
same,inhibition at 100 µM,[13],< 10%
same,half-life at 1 μM,[2],> 150 min
same,inhibition at 100 µM,[14],29 ± 3%
same,fold more potent compared to the best phosphonate inhibitor,[3],2 fold
same,fold improvement of LasB activity compared to thiol hit 1,[3]; vs 1,30 fold
same,% growth inhibition HepG2,[15],26 ± 11%
same,inhibition at 100 µM,[16],16 ± 7%
same,microsomal CLint at 1 μM,[5],< 5.8 µL/min/mg
same,inhibition at 100 µM,[17],26 ± 2%
same,inhibition at 100 µM,[18],< 10%
same,Papp at 300 min,[19],9.8 ± 2.6 ×10⁻⁶ cm/s
same,% growth inhibition HEK293,[20],12 ± 6%
same,logD7.4,"[9]; pH 7.4, chromatographic",1.81
same,chromatographic logD,[9],> 1.8
Cc1ccc(NC(=O)C(CC(C)C)P(=O)(O)O)cc1 (stereo not shown) [Compound 4a],LasB-related cytotoxicity in csn-treated A549 cells,[21],dose-dependent reduction of LasB-related cytotoxicity
same,Survival rate,[22]; 12.5 µM,100%
same,Screening observations,"[22]; 12.5 µM, 3 dpf",1 edema
same,Screening observations,"[22]; 12.5 µM, 4 dpf",1 edema
same,Screening observations,"[22]; 12.5 µM, 5 dpf","1 nsb, 1 edema"
same,Survival rate,[22]; 25 µM,100%
same,Survival rate,[22]; 50 µM,100%
same,Screening observations,"[22]; 50 µM, 3 dpf",1 edema
same,Screening observations,"[22]; 50 µM, 4 dpf",1 edema
same,Screening observations,"[22]; 50 µM, 5 dpf","1 nsb, 1 edema"
same,Survival rate,[22]; 100 μM,100%
same,Screening observations,"[22]; 100 µM, 5 dpf",3 nsb
same,maximum tolerated concentration (MTC),[22]; zebrafish embryos,≥ 100 µM
same,inhibition at 100 µM,[11],< 10%
same,inhibition at 1 µM,[23],< 10%
same,microsomal CLint at 1 μM,[1],< 5.8 µL/min/mg
same,inhibition at 100 µM,[13],< 10%
same,half-life,[2],> 240 min
same,half-life at 1 μM,[2],> 150 min
same,IC50,[3]; [30],51.2 ± 6.7 nM
same,IC50,"[3]; LasB IC50 in presence of 1% pulmonary surfactant, 1% pulmonary surfactant",123 ± 56 nM
same,viability of lung organoids challenged with 5% PA14 csn,"[24]; 5% PA14 csn, 48 h, MTT",improved in a dose-dependent manner
same,toxic effects on nontreated lung organoids,[24]; concentrations tested up to 100 μM,did not have significant toxic effects
same,inhibition at 100 µM,[25],< 10%
same,microsomal CLint,[4],< 11.6 µL/min/mg
same,microsomal CLint at 1 μM,[5],< 5.8 µL/min/mg
same,inhibition at 100 µM,[26],< 10%
same,inhibition at 100 µM,[18],< 10%
same,half-life,[6],> 240 min
same,half-life,[7],> 240 min
same,microsomal CLint,[8],< 11.6 µL/min/mg
same,inhibition of SafetyScreen44 targets,[27],no significant inhibition
same,microsomal CLint,[10],< 11.6 µL/min/mg
"C[C@H]1COc2c(N3CCN(C)CC3)c(F)cc3c(=O)c(C(=O)O)cn1c23 [levofloxacin, reference compound]",effect on bacterial burden (CFU) in lung,[28],reduced the bacterial burden back to stasis
same,LasB protein levels in blood,[29],clear reduction
